Source: ChEMBL document CHEMBL1201862, “PubChem BioAssay data set” (2004)
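48-hour exposure; five concentrations; linearly interpolated endpoints. Here, GI50 denotes the concentration required for 50% inhibition of growth.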 Active and inactive are the calls of the source. No stated cut-off is given here; in the data, active = GI50 up to about 1.1 µM and inactive = higher.

Key:
Test in all cases: NCI tumour cell line growth inhibition, 48 h
NCI-H226 = tested on: NCI-H226
M14 = tested on: M14
OVCAR-3 = tested on: OVCAR-3
SK-MEL-5 = tested on: SK-MEL-5
SK-MEL-2 = tested on: SK-MEL-2
SNB-19 = tested on: SNB-19
UACC-62 = tested on: UACC-62
KM12 = tested on: KM12
HOP-92 = tested on: HOP-92
SNB-75 = tested on: SNB-75
NCI-H460 = tested on: NCI-H460
EKVX = tested on: EKVX
A549 = tested on: A549
MOLT-4 = tested on: MOLT-4
RXF 393 = tested on: RXF 393
SR = tested on: SR

Measured: GI50

Nc1ccc(C(=O)NN2C(=O)C(Cl)C2c2ccc(O)cc2)cc1 (stereo not given)
inactive: NCI-H226 25.4 µM | M14 17.5 µM | OVCAR-3 15 µM | SK-MEL-5 17.2 µM | SK-MEL-2 15.3 µM | SNB-19 16 µM | UACC-62 14.9 µM | KM12 21.8 µM | HOP-92 24.5 µM | SNB-75 26.5 µM | NCI-H460 19.3 µM | EKVX 16.6 µM | A549 56.9 µM | MOLT-4 16.1 µM

CC(=O)C(CN(C(C)C)C(C)C)C(c1ccccc1)c1c(O)c2ccccc2oc1=O (stereo not given)
inactive: NCI-H226 > 100 µM | M14 > 100 µM | RXF 393 60.1 µM | OVCAR-3 > 100 µM | SK-MEL-5 > 100 µM | SK-MEL-2 > 100 µM | SNB-19 > 100 µM | UACC-62 > 100 µM | KM12 > 100 µM | SNB-75 16.7 µM | NCI-H460 > 100 µM | EKVX > 100 µM | SR > 100 µM | A549 > 100 µM | MOLT-4 > 100 µM

COc1ccc(C2=C(Cl)c3cc(OC)c(OC)cc3C2)cc1OC
inactive: NCI-H226 > 100 µM | M14 > 100 µM | RXF 393 24.4 µM | SK-MEL-5 > 100 µM | SNB-19 > 100 µM | UACC-62 > 100 µM | HOP-92 > 100 µM | SNB-75 > 100 µM | EKVX > 100 µM | SR > 100 µM | A549 > 100 µM | MOLT-4 > 100 µM

COc1ccc(CCNCc2cccc(OC)c2OC)cc1OC
inactive: M14 > 100 µM | RXF 393 > 100 µM | OVCAR-3 > 100 µM | SK-MEL-5 > 100 µM | SK-MEL-2 > 100 µM | SNB-19 > 100 µM | UACC-62 > 100 µM | KM12 > 100 µM | HOP-92 38.1 µM | SNB-75 > 100 µM | NCI-H460 > 100 µM | EKVX > 100 µM | A549 > 100 µM | MOLT-4 > 100 µM

CCOC(=O)C1S/C(=N\c2ccc(C)c(C)c2)N=C1C (stereo not given)
inactive: NCI-H226 > 100 µM | M14 > 100 µM | OVCAR-3 > 100 µM | SK-MEL-5 52.7 µM | SK-MEL-2 > 100 µM | SNB-19 > 100 µM | UACC-62 > 100 µM | KM12 > 100 µM | HOP-92 > 100 µM | SNB-75 66.8 µM | NCI-H460 > 100 µM | EKVX > 100 µM | SR > 100 µM | A549 > 100 µM | MOLT-4 > 100 µM

CC1(C)C=C(N2CCN(C3=CC(C)(C)NC(C)(C)C3)CC2)CC(C)(C)N1
inactive: M14 > 100 µM | OVCAR-3 > 100 µM | SK-MEL-5 > 100 µM | SNB-19 > 100 µM | UACC-62 > 100 µM | KM12 > 100 µM | HOP-92 > 100 µM | SNB-75 > 100 µM | NCI-H460 > 100 µM | EKVX > 100 µM | SR > 100 µM | A549 > 100 µM | MOLT-4 > 100 µM

COC(=O)C1=C(c2cc(OC)c(OC)c(OC)c2)OC(c2cc(OC)c(OC)c(OC)c2)C1 (stereo not given)
inactive: NCI-H226 17.1 µM | M14 20.5 µM | RXF 393 33.9 µM | OVCAR-3 22.1 µM | SK-MEL-5 16 µM | SNB-19 19.5 µM | UACC-62 12.8 µM | KM12 17.7 µM | HOP-92 10.7 µM | SNB-75 23.7 µM | NCI-H460 28.4 µM | SR 18 µM | A549 36.5 µM | MOLT-4 22.9 µM

Cc1cc(Cl)ccc1NC(=O)CCCC(=O)C(C(=O)c1ccccc1)c1ccccc1 (stereo not given)
inactive: M14 > 100 µM | OVCAR-3 > 100 µM | SK-MEL-2 > 100 µM | UACC-62 > 100 µM | KM12 > 100 µM | HOP-92 > 100 µM | NCI-H460 > 100 µM | MOLT-4 > 100 µM

CC1COC(C)(C)P(=O)(c2ccccc2)C1 (stereo not given)
inactive: NCI-H226 > 100 µM | M14 > 100 µM | RXF 393 > 100 µM | OVCAR-3 > 100 µM | SK-MEL-5 > 100 µM | SK-MEL-2 > 100 µM | SNB-19 > 100 µM | UACC-62 > 100 µM | KM12 > 100 µM | SNB-75 49.4 µM | NCI-H460 > 100 µM | EKVX > 100 µM | SR > 100 µM | A549 > 100 µM | MOLT-4 > 100 µM

Cc1ccc(S(=O)OC23CC4CC(CC(C4)C2)C3)cc1 (stereo not given)
inactive: NCI-H226 > 100 µM | M14 > 100 µM | RXF 393 70.1 µM | OVCAR-3 > 100 µM | SK-MEL-5 > 100 µM | SNB-19 > 100 µM | UACC-62 > 100 µM | KM12 > 100 µM | HOP-92 > 100 µM | SNB-75 69.5 µM | NCI-H460 > 100 µM | EKVX > 100 µM | SR 35.7 µM | A549 > 100 µM | MOLT-4 29.9 µM

COc1ccc(Cn2c(C)nc3c2C(=O)c2ccccc2C3=O)cc1
inactive: NCI-H226 14.3 µM | M14 11.6 µM | RXF 393 14 µM | OVCAR-3 9.84 µM | SK-MEL-5 7.71 µM | SK-MEL-2 13.2 µM | SNB-19 22.3 µM | UACC-62 4.58 µM | KM12 5.31 µM | SNB-75 11.2 µM | NCI-H460 2.38 µM | EKVX 13.8 µM | SR 1.44 µM | A549 8.61 µM | MOLT-4 2.59 µM

COc1ccc2c(c1)[n+]([O-])c(C(=O)CC(=O)C(=O)Nc1cccc(C)c1C)c(C)[n+]2[O-]
inactive: NCI-H226 > 100 µM | M14 > 100 µM | RXF 393 > 100 µM | OVCAR-3 > 100 µM | SK-MEL-5 > 100 µM | SK-MEL-2 > 100 µM | SNB-19 > 100 µM | UACC-62 > 100 µM | KM12 > 100 µM | HOP-92 > 100 µM | NCI-H460 > 100 µM | EKVX > 100 µM | SR > 100 µM | A549 > 100 µM | MOLT-4 > 100 µM

CC(=O)N1CCN(c2ccc(OCC3COC(Cn4ccnc4)(c4ccc(Cl)cc4Cl)O3)cc2)CC1 (stereo not given) [KETOCONAZOLE]
inactive: NCI-H226 18.7 µM | M14 22.4 µM | RXF 393 22.2 µM | OVCAR-3 28.1 µM | SK-MEL-5 12.2 µM | SK-MEL-2 17.4 µM | UACC-62 15.4 µM | KM12 30.6 µM | HOP-92 41.7 µM | NCI-H460 32.5 µM | SR 20.2 µM | A549 27.3 µM | MOLT-4 22.5 µM

CCOC(=O)/C(=C\c1ccc(OCc2ccccc2)c(OC)c1)C(=O)c1ccccc1
inactive: NCI-H226 25.7 µM | M14 15 µM | OVCAR-3 22 µM | SK-MEL-5 17.9 µM | SK-MEL-2 19.6 µM | SNB-19 27.7 µM | UACC-62 23.3 µM | KM12 19.5 µM | EKVX 27.4 µM | SR 33 µM | A549 > 10 µM | MOLT-4 18.3 µM
